# Data: publication PMC5458078, “Global mapping of CARM1 substrates defines enzyme specificity and substrate recognition” (Nature Communications, 2017)
# Like-named read-outs stand apart in the source and are kept apart here.
# Experiments:
# MCF7 cells = assay: Quantitative nanoLC-MS/MS (TMT) of ADMA-containing peptides, CARM1 KO vs parental; format: cell-based, human; parameters: Fold change KO/WT: scale not given here
# MCF7 CARM1 KO cells = assay: Quantitative MS of ADMA-containing peptides in MCF7 CARM1 KO cells expressing CARM1 28-608 or CARM1 140-608, and in CARM1 KO; format: cell-based, human
# [1] = CARM1 KO vs wild type MCF7 cells, 3 biological replicates each
# [2] = mean, CARM1 140-608 versus WT (log2 scale)
# [3] = mean, CARM1 KO versus WT (log2 scale)
# [4] = MCF7 CARM1 knockout vs wild type, 3 biological replicates each, values are on log2 scale
# [5] = ADMA-containing peptide, MCF7, CARM1 knockout (KO1-3) vs wild type (WT1-3), TMT 6-plex experiment #1
# [6] = difference of log2 means, CARM1 140-608 vs WT
# [7] = difference of log2 means, KO vs WT
# [8] = CARM1 140-608 vs WT, mean of 3 replicates (log2 scale)
# [9] = KO vs WT, mean of 3 replicates (log2 scale)
# [10] = MCF7, CARM1 KO (KO1-KO3) vs wild type (WT1-WT3)
# [11] = ratio on log2 scale, mean of 3 replicates
# [12] = MCF7, CARM1 KO vs WT, three biological replicates each
# [13] = ADMA-containing peptide, CARM1 knockout (KO) vs wild type (WT) MCF7 cells, 6-plex TMT experiment #1, three biological replicates each, sheet "MCF7"
# [14] = CARM1 140-608 vs WT, mean of 3 replicates, log2
# [15] = KO vs WT, mean of 3 replicates, log2
# [16] = CARM1 140-608 versus WT, mean of three replicates (log2)
# [17] = KO versus WT, mean of three replicates (log2)
# [18] = log2 scale ratio, mean of n = 3
# [19] = MCF7, CARM1 knockout vs wild type, n = 3 each
substance,measurement,setting,value
AAGMTPLYAGQrLPQHGYPGPPQAQPLPrQGVK,Fold change KO/WT,MCF7 cells; [1],-1.882
ACLTSGTPGPrAQLTAVTPDTR,CARM1 140-608/WT,MCF7 CARM1 KO cells; [2],-1.022
same,KO/WT,MCF7 CARM1 KO cells; [3],-1.3764
same,Fold change KO/WT,MCF7 cells; [4],-1.3764
AFHDYSAAAAPSPVLGNIPPNDGMPGGPIPPGFFQPFMSPrYAGGPrPPIR,Fold change KO/WT,MCF7 cells; [5],-2.246
AFSSrSYTSGPGSrISSSSFSR,CARM1 140-608/WT,MCF7 CARM1 KO cells; [6],-1.259
same,KO/WT,MCF7 CARM1 KO cells; [7],-1.022
same,Fold change KO/WT,MCF7 cells; [4],-1.022
AGGAASGGGGNSWDLPGSHVrLPGR,CARM1 140-608/WT,MCF7 CARM1 KO cells; [8],-0.7799
same,KO/WT,MCF7 CARM1 KO cells; [9],-0.9676
same,Fold change KO/WT,MCF7 cells; [10],-0.8314
AGGLLGTGSGLNLrMAGPQGLDLAPILR,CARM1 140-608/WT,MCF7 CARM1 KO cells; [11],-0.05646
same,KO/WT,MCF7 CARM1 KO cells; [11],-2.802
same,Fold change KO/WT,MCF7 cells; [12],-3.029
AGIGVYWGPGHPLNVGIrLPGR,CARM1 140-608/WT,MCF7 CARM1 KO cells; [8],-0.6349
same,KO/WT,MCF7 CARM1 KO cells; [9],-0.8432
same,Fold change KO/WT,MCF7 cells; [10],-0.8432
AGPrLLLIPVQQGSPTLRPVSNTQLQGHrMVLQPVR,Fold change KO/WT,MCF7 cells; [13],-0.6769
AGPrLLLIPVQQGSPTLrPVSNTQLQGHrMVLQPVR,Fold change KO/WT,MCF7 cells; [13],-0.8102
AGSQGGrGGGAQAAAR,CARM1 140-608/WT,MCF7 CARM1 KO cells; [14],0.1432
same,KO/WT,MCF7 CARM1 KO cells; [15],0.7684
same,Fold change KO/WT,MCF7 cells; [12],0.4231
AMLPGSPLFTrAPPPK,CARM1 140-608/WT,MCF7 CARM1 KO cells; [16],-2.658
same,KO/WT,MCF7 CARM1 KO cells; [17],-3.62
same,Fold change KO/WT,MCF7 cells; [13],-3.62
ANYNFrGMYNQrYHCPVPK,CARM1 140-608/WT,MCF7 CARM1 KO cells,-2.05
same,KO/WT,MCF7 CARM1 KO cells,-3.002
same,Fold change KO/WT,MCF7 cells; [5],-3.002
APAGGSLGrALMR,CARM1 140-608/WT,MCF7 CARM1 KO cells; [6],-0.03816
same,KO/WT,MCF7 CARM1 KO cells; [7],0.3587
same,Fold change KO/WT,MCF7 cells; [13],-0.2145
APDEPQQAQVPHVWGWEVAGAPALrLQK,CARM1 140-608/WT,MCF7 CARM1 KO cells; [6],-2.552
same,KO/WT,MCF7 CARM1 KO cells; [7],-3.114
same,Fold change KO/WT,MCF7 cells; [13],-2.912
APESPPSADPALVAGPAEEAECPPPRQPQPAQNVLAAPrLR,CARM1 140-608/WT,MCF7 CARM1 KO cells; [16],-0.5501
same,KO/WT,MCF7 CARM1 KO cells; [17],-1.431
same,Fold change KO/WT,MCF7 cells; [13],-1.431
APGPrGSYLGGYSAGR,CARM1 140-608/WT,MCF7 CARM1 KO cells; [8],-0.09328
same,KO/WT,MCF7 CARM1 KO cells; [9],-0.2416
same,Fold change KO/WT,MCF7 cells; [10],-0.1976
APGPrGSYLGGYSAGrGIYSR,CARM1 140-608/WT,MCF7 CARM1 KO cells; [8],0.2879
same,KO/WT,MCF7 CARM1 KO cells; [9],0.5206
same,Fold change KO/WT,MCF7 cells; [10],0.2541
APPGGLHAPrLSLEGAAR,CARM1 140-608/WT,MCF7 CARM1 KO cells; [14],-1.8169
same,KO/WT,MCF7 CARM1 KO cells; [15],-2.946
same,Fold change KO/WT,MCF7 cells; [12],-2.121
APPGGLHAPrLSLEGAArGAAEAK,CARM1 140-608/WT,MCF7 CARM1 KO cells; [14],-2.013
same,KO/WT,MCF7 CARM1 KO cells; [15],-2.606
same,Fold change KO/WT,MCF7 cells; [12],-2.606
APPSFPPPAASrGGLGGTR,CARM1 140-608/WT,MCF7 CARM1 KO cells; [18],-0.3832
same,KO/WT,MCF7 CARM1 KO cells; [18],0.1973
same,Fold change KO/WT,MCF7 cells; [5],0.1973
APPVrYCIPGER,CARM1 140-608/WT,MCF7 CARM1 KO cells; [11],-3.736
same,KO/WT,MCF7 CARM1 KO cells; [11],-5.161
same,Fold change KO/WT,MCF7 cells; [19],-5.161
APVFPGrGSYSNR,CARM1 140-608/WT,MCF7 CARM1 KO cells; [2],0.1704
same,KO/WT,MCF7 CARM1 KO cells; [3],0.1127
same,Fold change KO/WT,MCF7 cells; [4],-0.1545
AYGQQYWGQPGNrGGYR,Fold change KO/WT,MCF7 cells; [4],-0.04736
AYSSFGGGrGSR,Fold change KO/WT,MCF7 cells; [19],-0.1369
CAGFLEPTWLAAPPRLArPPR,Fold change KO/WT,MCF7 cells; [19],-1.124
DLVILLYETALLSSDFGLEGPQTHANr,Fold change KO/WT,MCF7 cells; [4],0.05306
DLYANTVLSGGSTMYPGIADr,Fold change KO/WT,MCF7 cells; [12],0.2012
EELLrHQLLEKR,Fold change KO/WT,MCF7 cells; [12],-2.786
EHGAAASErLQLGTPPPLLAArLVPPR,CARM1 140-608/WT,MCF7 CARM1 KO cells; [16],-0.1041
same,KO/WT,MCF7 CARM1 KO cells; [17],-0.4942
FEGSPGLrFEGSPGGLrFEGPGGQPVGGLrFEGHR,Fold change KO/WT,MCF7 cells; [13],-0.8785
FFHMPrFQHQAPrQLFYK,Fold change KO/WT,MCF7 cells; [1],-1.814
FLQPrLAPNQPPPPLIrPALAAPRHSARPGPQPPPTLIGTPLEPPAPSL,Fold change KO/WT,MCF7 cells; [10],-2.908
GAEAANVTGPDGVPVEGSrYAADR,Fold change KO/WT,MCF7 cells; [1],-1.299
GGFQNrGGGSGGGGNYrGGFNR,Fold change KO/WT,MCF7 cells; [4],0.1419
GGrFSAQGMGTFNPADYAEPANTDDNYGNSSGNTWNNTGHFEPDDGTSAWR,Fold change KO/WT,MCF7 cells; [1],-0.4035
GPQWKRGArGGNLVTGTQr,Fold change KO/WT,MCF7 cells; [4],-0.2728
GPSGGYrGSGGFQrGGGrGAYGTGYFGQGR,Fold change KO/WT,MCF7 cells; [19],0.2112
GSGTGIYSNAAPPPVTYQGNLYrPLLrGQAQIPK,Fold change KO/WT,MCF7 cells; [1],-4.659
GTPVrGAITR,Fold change KO/WT,MCF7 cells; [4],-0.02001
GrGTLTrGAFVGATAAPGYIAPGYGTPYGYSTAAPAYGLPKR,Fold change KO/WT,MCF7 cells; [5],-0.6705
ICEGIrPQIMNGPLHPRPLVALLDGR,CARM1 140-608/WT,MCF7 CARM1 KO cells; [11],-0.2372
same,KO/WT,MCF7 CARM1 KO cells; [11],-0.9025
